ChEMBL document CHEMBL1212709, “Design of isoform-selective phospholipase D inhibitors that modulate cancer cell invasiveness” (Nat Chem Biol, 2009)
pIC50: −log10 of the molar value.

Legend:
[1] = Inhibition of PLD
[2] = target: T1, Phospholipase D1 (Homo sapiens, UniProt Q13393); experiment: Inhibition of human PLD1 assessed as release of methyl-[3H]choline from choline-methyl-[3H]dipalmitoylphosphatidylcholine after 30 mins by exogenous substrate assay
T1 sequence (Q13393 whole entry): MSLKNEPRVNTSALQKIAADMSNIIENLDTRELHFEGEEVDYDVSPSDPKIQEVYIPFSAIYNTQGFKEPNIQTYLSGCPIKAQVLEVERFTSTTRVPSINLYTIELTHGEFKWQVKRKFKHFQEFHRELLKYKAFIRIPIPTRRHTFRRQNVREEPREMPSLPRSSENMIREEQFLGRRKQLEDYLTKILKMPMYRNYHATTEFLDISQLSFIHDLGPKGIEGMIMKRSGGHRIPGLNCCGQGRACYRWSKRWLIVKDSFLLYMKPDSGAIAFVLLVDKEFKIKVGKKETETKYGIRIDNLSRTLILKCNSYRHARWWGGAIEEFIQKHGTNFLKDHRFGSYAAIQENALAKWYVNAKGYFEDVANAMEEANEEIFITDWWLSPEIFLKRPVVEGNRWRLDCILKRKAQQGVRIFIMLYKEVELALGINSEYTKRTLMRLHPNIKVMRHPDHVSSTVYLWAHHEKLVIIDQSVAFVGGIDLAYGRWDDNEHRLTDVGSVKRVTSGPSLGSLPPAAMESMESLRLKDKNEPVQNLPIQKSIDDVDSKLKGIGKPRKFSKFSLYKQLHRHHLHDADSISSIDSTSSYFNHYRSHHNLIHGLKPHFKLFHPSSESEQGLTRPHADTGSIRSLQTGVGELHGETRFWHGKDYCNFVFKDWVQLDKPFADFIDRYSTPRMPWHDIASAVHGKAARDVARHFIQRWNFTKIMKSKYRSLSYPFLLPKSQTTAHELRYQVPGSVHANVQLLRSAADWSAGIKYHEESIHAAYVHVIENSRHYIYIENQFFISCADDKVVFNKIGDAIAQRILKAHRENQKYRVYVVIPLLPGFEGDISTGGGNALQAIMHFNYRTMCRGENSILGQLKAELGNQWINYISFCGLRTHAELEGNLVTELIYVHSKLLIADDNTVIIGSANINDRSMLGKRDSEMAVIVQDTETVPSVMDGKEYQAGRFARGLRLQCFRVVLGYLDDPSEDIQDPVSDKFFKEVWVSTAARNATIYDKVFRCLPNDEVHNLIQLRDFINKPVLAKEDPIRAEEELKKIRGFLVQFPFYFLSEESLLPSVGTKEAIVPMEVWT

[3] = target: T1, Phospholipase D1
[4] = target: T2, Phospholipase D2 (Homo sapiens, UniProt O14939); experiment: Inhibition of GFP-tagged human PLD2 expressed in human HEK293 cells assessed as decrease in phosphatidylbutanol-[d9] production after 30 mins by mass spectrometric analysis; format: cell-based
T2 sequence (O14939 whole entry, the tested form may be a part): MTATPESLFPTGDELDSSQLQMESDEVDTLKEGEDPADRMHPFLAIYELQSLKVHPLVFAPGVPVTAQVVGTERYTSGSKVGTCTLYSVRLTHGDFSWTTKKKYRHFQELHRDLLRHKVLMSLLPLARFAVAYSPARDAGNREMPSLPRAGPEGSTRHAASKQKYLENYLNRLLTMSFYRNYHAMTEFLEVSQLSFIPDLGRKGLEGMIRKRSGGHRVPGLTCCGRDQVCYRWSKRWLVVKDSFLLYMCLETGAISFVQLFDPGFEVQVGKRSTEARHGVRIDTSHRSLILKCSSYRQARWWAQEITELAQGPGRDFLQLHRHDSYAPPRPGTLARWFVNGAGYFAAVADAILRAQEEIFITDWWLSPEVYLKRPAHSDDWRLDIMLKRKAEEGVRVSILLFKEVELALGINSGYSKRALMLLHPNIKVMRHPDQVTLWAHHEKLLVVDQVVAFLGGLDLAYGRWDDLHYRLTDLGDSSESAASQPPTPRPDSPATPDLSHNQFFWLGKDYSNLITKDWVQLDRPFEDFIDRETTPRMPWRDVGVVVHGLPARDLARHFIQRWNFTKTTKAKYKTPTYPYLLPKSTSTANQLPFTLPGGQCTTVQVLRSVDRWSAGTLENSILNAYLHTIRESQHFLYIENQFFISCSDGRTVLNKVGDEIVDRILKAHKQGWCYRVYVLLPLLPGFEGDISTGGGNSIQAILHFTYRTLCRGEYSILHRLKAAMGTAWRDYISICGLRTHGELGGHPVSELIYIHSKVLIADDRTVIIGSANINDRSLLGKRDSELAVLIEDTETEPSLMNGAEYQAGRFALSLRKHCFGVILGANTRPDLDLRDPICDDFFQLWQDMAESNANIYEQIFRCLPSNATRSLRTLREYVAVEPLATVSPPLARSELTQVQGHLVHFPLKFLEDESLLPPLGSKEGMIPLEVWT

[5] = target: T3, Phospholipase D1 (Rattus norvegicus, UniProt P70496); experiment: Inhibition of N-terminally truncated rat PLD1 assessed as release of methyl-[3H]choline from choline-methyl-[3H]dipalmitoylphosphatidylcholine after 30 mins by exogenous substrate assay
T3 sequence (P70496 whole entry): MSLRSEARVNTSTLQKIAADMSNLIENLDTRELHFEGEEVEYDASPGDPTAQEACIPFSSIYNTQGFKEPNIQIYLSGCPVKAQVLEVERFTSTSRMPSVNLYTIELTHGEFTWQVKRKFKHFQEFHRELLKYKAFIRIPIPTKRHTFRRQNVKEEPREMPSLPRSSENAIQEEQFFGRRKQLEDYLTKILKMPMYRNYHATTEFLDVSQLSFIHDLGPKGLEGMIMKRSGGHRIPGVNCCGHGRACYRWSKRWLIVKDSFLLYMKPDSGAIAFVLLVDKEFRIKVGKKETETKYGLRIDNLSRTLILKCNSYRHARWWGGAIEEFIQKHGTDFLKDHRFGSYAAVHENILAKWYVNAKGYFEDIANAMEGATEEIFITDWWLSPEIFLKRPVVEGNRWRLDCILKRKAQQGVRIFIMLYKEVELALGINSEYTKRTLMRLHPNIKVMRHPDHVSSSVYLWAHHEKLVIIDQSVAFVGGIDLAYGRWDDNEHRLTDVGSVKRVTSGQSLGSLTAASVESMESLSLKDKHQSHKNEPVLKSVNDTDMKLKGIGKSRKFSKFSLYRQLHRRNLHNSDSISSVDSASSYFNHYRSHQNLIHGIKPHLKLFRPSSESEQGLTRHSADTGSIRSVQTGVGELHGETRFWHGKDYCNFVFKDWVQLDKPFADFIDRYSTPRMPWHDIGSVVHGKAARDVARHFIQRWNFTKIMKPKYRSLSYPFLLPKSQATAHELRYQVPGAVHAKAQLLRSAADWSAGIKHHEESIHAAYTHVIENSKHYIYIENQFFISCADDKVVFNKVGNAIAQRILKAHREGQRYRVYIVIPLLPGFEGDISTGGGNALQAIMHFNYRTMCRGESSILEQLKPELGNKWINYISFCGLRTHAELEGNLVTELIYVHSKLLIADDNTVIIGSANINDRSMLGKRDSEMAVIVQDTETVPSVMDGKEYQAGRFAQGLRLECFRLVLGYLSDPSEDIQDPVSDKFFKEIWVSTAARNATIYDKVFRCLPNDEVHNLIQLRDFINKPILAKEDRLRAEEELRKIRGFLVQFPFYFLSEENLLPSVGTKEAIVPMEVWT

[6] = target: T2, Phospholipase D2; experiment: Inhibition of human PLD2 assessed as release of methyl-[3H]choline from choline-methyl-[3H]dipalmitoylphosphatidylcholine after 30 mins by exogenous substrate assay
[7] = target: T1, Phospholipase D1; experiment: Inhibition of human PLD1b
[8] = Inhibition of in Streptomyces chromofuscus PLD

SMILES	pIC50 [1]	pIC50 [3]	pIC50 [8]	pIC50 [2]	pIC50 [4]	pIC50 [5]	pIC50 [6]	pIC50 [7]
Oc1ccc(/C=C/c2cc(O)cc(O)c2)cc1 [RESVERATROL]	< 4.22							
O=C(NCCN1CCC(n2c(O)nc3ccccc32)CC1)c1ccc(Cl)c(Cl)c1		7.72		7.34	6.66	6.04	6.60	
O=C(c1ccc(OCCN2CCCCC2)cc1)c1c(-c2ccc(O)cc2)sc2cc(O)ccc12 [RALOXIFENE]		5.07		5.37	5.00	< 4.70	5.47	
O=C(NCCN1CCC(n2c(O)nc3ccccc32)CC1)c1cccc2c1-c1ccccc1C2=O		7.70		6.59	6.00	5.96	6.22	
COc1ccc(C(=O)NCCN2CCC(n3c(=O)[nH]c4ccccc43)CC2)cc1		6.00		4.82	5.96	< 4.70	< 4.70	
CC(C)=CCC/C(C)=C/CC/C(C)=C/[C@H]1[C@H](COP(=O)(O)OP(=O)(O)O)[C@@]1(C)CC/C=C(\C)CCC=C(C)C [Z-PSDP]			7.00					< 6.00
CCC(=C(c1ccc(O)cc1)c1ccc(OCCN(C)C)cc1)c1ccccc1		5.32				4.55		
Cc1ccc(C(=O)NCCN2CCC(n3c(O)nc4ccccc43)CC2)cc1		7.49		6.11	6.68	5.77	5.96	
O=C(NCCN1CCC(n2c(O)nc3ccccc32)CC1)c1ccc(Cl)cc1		8.20		7.26	6.85	6.04	6.89	
O=C(NCCN1CCC2(CC1)C(=O)NCN2c1ccccc1)c1ccc(C(F)(F)F)cc1						< 4.70	5.37	
O=C(c1ccc(F)cc1)N(CCN1CCC(n2c(=O)[nH]c3ccccc32)CC1)C(=O)c1ccc(F)cc1		7.32		5.85	6.33	6.06	5.66	
O=C(NCCN1CCC2(CC1)C(=O)NCN2c1ccccc1)c1ccc2ccccc2c1						< 4.70		

Second part, led by results:

pIC50 [1]	pIC50 [3]	pIC50 [8]	SMILES	pIC50 [2]	pIC50 [4]	pIC50 [5]	pIC50 [6]	pIC50 [7]
	7.10		C=Cc1ccc(C(=O)NCCN2CCC(n3c(=O)[nH]c4ccccc43)CC2)cc1	6.27				
	9.00		O=C(NCCN1CCC(n2c(=O)[nH]c3ccccc32)CC1)c1cc2cc(F)ccc2[nH]1	8.02		7.48	7.77	
	8.05		O=C(NCCN1CCC(n2c(=O)[nH]c3ccccc32)CC1)c1cc(Br)c(Br)o1	7.10	6.66	5.54	6.77	
	7.43		O=C(NCCN1CCC(n2c(=O)[nH]c3ccccc32)CC1)c1ccc[nH]1	6.50	6.47	5.82	5.92	
	6.48		O=C(NCCN1CCC(n2c(=O)[nH]c3ccccc32)CC1)n1c2ccccc2c2ccccc21	6.52	6.59	5.14	6.00	
	7.07		O=C(NCCN1CCC(n2c(=O)[nH]c3ccccc32)CC1)c1cc(Cl)cc(Cl)c1	6.40	5.96	5.46	5.72	
	7.85		O=C(NCCN1CCC(n2c(=O)[nH]c3ccccc32)CC1)c1cc2ccccc2s1	7.00	6.68	6.00	6.47	
